Results from patent publication US20240368168A1, “SARM1 ENZYME ACTIVITY INHIBITOR AND APPLICATION THEREOF” (ARTIVILA BIOPHARMA, priority 2021, published 2024).

How the values were obtained:
[1] = target: T1, dN-SARM1 protein (Homo sapiens, UniProt Q6SZW1); assay: In vitro biochemical assay for inhibiting SARM1 enzymatic activity (% inhibition rate), PC6 fluorescence method; conditions: 20 μM compound; 50 μM NAD, 50 μM PC6, 50 μM NMN activator
T1 construct: the N-terminal mitochondrial localization signal peptide of SARM1 was removed
T1 sequence (Q6SZW1 28-724): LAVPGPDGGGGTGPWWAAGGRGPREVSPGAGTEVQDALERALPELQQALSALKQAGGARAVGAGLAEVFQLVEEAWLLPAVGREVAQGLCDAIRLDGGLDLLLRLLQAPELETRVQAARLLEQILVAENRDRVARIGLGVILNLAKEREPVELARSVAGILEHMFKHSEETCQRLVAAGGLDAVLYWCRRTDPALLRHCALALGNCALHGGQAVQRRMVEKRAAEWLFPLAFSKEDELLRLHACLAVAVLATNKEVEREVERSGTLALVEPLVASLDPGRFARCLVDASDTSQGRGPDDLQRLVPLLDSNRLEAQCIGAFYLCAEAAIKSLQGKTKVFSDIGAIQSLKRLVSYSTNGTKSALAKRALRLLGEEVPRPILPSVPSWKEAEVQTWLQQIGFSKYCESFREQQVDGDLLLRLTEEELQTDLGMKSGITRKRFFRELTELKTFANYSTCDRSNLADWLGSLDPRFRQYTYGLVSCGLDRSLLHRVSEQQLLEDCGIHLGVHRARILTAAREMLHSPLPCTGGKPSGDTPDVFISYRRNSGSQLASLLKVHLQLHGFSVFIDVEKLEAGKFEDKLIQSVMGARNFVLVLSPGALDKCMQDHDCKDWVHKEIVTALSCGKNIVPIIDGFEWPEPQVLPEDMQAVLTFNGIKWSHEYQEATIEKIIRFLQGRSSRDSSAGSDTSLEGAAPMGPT
Description: The compounds were subjected to PC6 fluorescence method measurement [Chinese Patent 202010528147.3] using the dN-SARM1 protein obtained through “(4) Protein extraction” in “Expression and purification of SARM1 protein” in the above biological activity example 1.
First, 0.05 μg/ml dN-SARM1 and 20 μM compound were incubated in 50 mM Tris-HCl (pH 7.5) solution for 10 min, and then added with 50 μM NAD and 50 μM PC6 as substrate and 50 μM NMN as activator for 30 minutes of reaction at room temperature. The concentration of each component was the final concentration in the reaction system.
During the reaction, PC6 fluorescence spectrum dynamics were detected by a microplate reader, wherein the excitation wavelength and emission wavelength for detection were 390 nm and 520 nm, respectively. Finally, the reaction rate was used to express the activity of the protein. The higher the reaction rate, the stronger the activity of the protein and the lower the inhibitory efficiency of the compound.

[2] = target: T1, dN-SARM1 protein; assay: In vitro biochemical assay for inhibiting SARM1 enzymatic activity (IC50), PC6 fluorescence method; conditions: 50 μM NAD, 50 μM PC6, 50 μM NMN activator
Method in brief: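 Activity read as the rate of PC6 fluorescence change (390 nm excitation, 520 nm emission) over a 30 min room-temperature reaction containing final 50 μM each of NAD, PC6 and NMN activator. Enzyme, 0.05 μg/ml dN-SARM1 in 50 mM Tris-HCl pH 7.5, first incubated 10 min with compound diluted serially from 200 μM; IC50 calculated.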

[3] = target: T2, SARM1 protein in iSARM1 (HEK293) cells (Homo sapiens, UniProt Q6SZW1); assay: Inhibitory activity in inducible SARM1 overexpressing cell line, intracellular cADPR level; type: cell-based; conditions: activator CZ-48 100 μM, cADPR content
T2 construct: The full-length SARM1 was synthesized into the pUC57 plasmid by WZ Biosciences Inc., and PCR was performed using pUC57-SARM1 as a DNA template
T2 sequence (Q6SZW1 28-724): T1 sequence (Q6SZW1 28-724)
Method in brief: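 Inducible SARM1-overexpressing HEK293 cells preincubated 1.5 h with inhibitor (50 μM final), then activated with 100 μM CZ-48 for 16 h. Intracellular cADPR extracted with perchloric acid, NAD+ removed by NADase, and quantified by cyclase-coupled resazurin cycling assay (Ex/Em 544/599, 30 min kinetics) against cADPR standards; inhibition rate and IC50 calculated.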

Row | inhibition at 20 µM [1] [%] | IC50 [2] [nM] | EC50 [3] [nM] | Structure (SMILES)
1 | > 90 |  |  | CNc1ccc2ncc(Br)n2n1 [Compound 1, 3-bromo-N-methylimidazo[1,2-b]pyridazin-6-amine]
2 | > 90 |  |  | Nc1cn2c(-c3ccccc3)cnc2cc1Cl [Compound 19]
3 | 50 to 89 |  |  | CC(C)(C)OC(=O)Nc1ccc2ncc(-c3ccccc3)n2n1 [Compound 22]
4 | > 90 | 1000 to 10000 |  | CCOC(=O)c1ccc2ncc(-c3ccccc3)n2c1 [Compound 24]
5 | > 90 | < 1000 |  | COc1ccn2c(-c3ccccc3)cnc2c1 [Compound 26]
6 | 50 to 89 | 1000 to 10000 |  | COc1cccn2c(-c3ccccc3)cnc12 [Compound 27]
7 | 50 to 89 |  |  | Ic1cccc2ncc(I)n12 [Compound 28]
8 | > 90 | 1000 to 10000 |  | CN(C(=O)OC(C)(C)C)c1ccc2ncc(-c3ccnc(N)c3)n2c1 [Compound 41]
9 | 50 to 89 |  |  | CN1CCC(C(=O)Nc2cccc(-c3cnc4ccc(N(C)C(=O)OC(C)(C)C)cn34)c2)CC1 [Compound 48]
10 | 50 to 89 |  |  | CN(C(=O)OC(C)(C)C)c1ccc2ncc(-c3ccccc3)n2n1 [Compound 95, tert-butyl methyl(3-phenylimidazo[1,2-b]pyridazin-6-yl) carbamate]
11 | 50 to 89 |  |  | CNc1ccc2ncc(-c3cccc(S(=O)(=O)NCCOCCOC)c3)n2c1 [Compound 109, N-(2-(2-methoxyethoxy)ethyl)-3-(6-(methylamino)imidazo[1,2-a]pyridin-3-yl)benzenesulfonamide]
12 | 50 to 89 |  |  | CC(C)(C)OC(=O)Nc1ccc2ncc(-c3ccc(C(=O)NC4CCOCC4)s3)n2c1 [Compound 127, tert-butyl (3-(5-((tetrahydro-2H-pyran-4-yl)carbamoyl)thiophen-2-yl)imidazo[1,2-a]pyridin-6-yl)carbamate]
13 | 50 to 89 |  |  | COCCOCCNC(=O)c1cccc(-c2cnc3ccc(N(C)C(=O)OC(C)(C)C)cn23)c1 [Compound 133, tert-butyl (3-(3-((2-(2-methoxyethoxy)ethyl)carbamoyl)phenyl)imidazo[1,2-a]pyridin-6-yl)(methyl)carbamate]
14 | 50 to 89 |  |  | CN(C(=O)OC(C)(C)C)c1ccc2ncc(-c3cccc(C(=O)NC4CCOCC4)c3)n2c1 [Compound 135]
15 | 50 to 89 |  |  | CC(C)(C)OC(=O)Nc1ccc2ncc(C(=O)NCCOCCOCCNC(=O)c3cnc4ccc(NC(=O)OC(C)(C)C)cn34)n2c1 [Compound 139]
16 | > 90 |  |  | CN(C(=O)C(F)(F)F)c1ccc2ncc(NC(=O)COCCOCCOCC(=O)Nc3cnc4ccc(N(C)C(=O)C(F)(F)F)cn34)n2c1 [Compound 142, N,N′-(3,3′-((2,2′-((oxybis(ethane-2,1-diyl))bis(oxy))bis (acetyl))bis(azadialkyl))bis(imidazo[1,2-a]pyridin-6,3-diyl))bis(2,2,2-trifluoro-N-methylacetamide)]
17 | > 90 |  |  | CN(C(=O)OC(C)(C)C)c1ccc2ncc(-c3cccc(NC(=O)CN4CCOCC4)c3)n2c1 [Compound 147]
18 | > 90 |  |  | CN(C(=O)OC(C)(C)C)c1ccc2ncc(-c3cccc(NC(=O)CN4CCC(O)C4)c3)n2c1 (stereo not drawn) [Compound 148]
19 |  | < 1000 | < 1000 | CN(C(=O)OC(C)(C)C)c1ccc2ncc(-c3cccc(NC(=O)[C@@H]4CCOC4)c3)n2c1 [Compound 238]
20 |  | < 1000 | < 1000 | CN(C(=O)OC(C)(C)C)c1ccc2ncc(-c3cccc(NC(=O)[C@H]4CCOC4)c3)n2c1 [Compound 239]
21 |  | < 1000 | < 1000 | CC(C)(C)OC(=O)Nc1ccc2ncc(-c3cccc(NC(=O)COCCOCc4ccccc4)c3)n2c1 [Compound 240]
22 |  | < 1000 | < 1000 | CNc1ccc2ncc(-c3cccc(NC(=O)COCCOCc4ccccc4)c3)n2c1 [Compound 241]

Row | inhibition at 20 µM [1] [%] | IC50 [2] [nM] | EC50 [3] [nM] | Structure (SMILES)
23 |  | 1000 to 10000 | < 1000 | CN(C(=O)OC(C)(C)C)c1ccc2ncc(-c3cccc(NC(=O)COCCOCc4ccccc4)c3)n2c1 [Compound 244]
24 |  | 1000 to 10000 | < 1000 | CN(C(=O)OC(C)(C)C)c1ccc2ncc(-c3cccc(NC(=O)C4CCCO4)c3)n2c1 (stereo not drawn) [Compound 245]
25 |  | 1000 to 10000 | 1000 to 10000 | CN(C(=O)OC(C)(C)C)c1ccc2ncc(-c3cccc(C(=O)NC[C@@H]4CCO4)c3)n2c1 [Compound 246]
26 |  | 1000 to 10000 | < 1000 | CC(C)OCCOCC(=O)Nc1cccc(-c2cnc3ccc(N(C)C(=O)OC(C)(C)C)cn23)c1 [Compound 247]
27 |  | 1000 to 10000 | < 1000 | CN(C(=O)OC(C)(C)C)c1ccc2ncc(-c3cccc(NC(=O)COCc4ccccc4)c3)n2c1 [Compound 248]
28 |  | 1000 to 10000 | < 1000 | CN(C(=O)OC(C)(C)C)c1ccc2ncc(-c3cccc(NC(=O)c4ccccc4)c3)n2c1 [Compound 249]
29 |  | 1000 to 10000 | 1000 to 10000 | CNc1ccc2ncc(-c3cccc(NC(=O)c4ccccc4)c3)n2c1 [Compound 251]
30 |  | 1000 to 10000 | 1000 to 10000 | CNc1ccc2ncc(-c3cccc(CNC(=O)c4ccccc4)c3)n2c1 [Compound 253]
31 |  | < 1000 | 1000 to 10000 | CN(C(=O)OC(C)(C)C)c1ccc2ncc(-c3cccc(CNC(=O)OC(C)(C)C)c3)n2c1 [Compound 254]
32 |  | < 1000 | 1000 to 10000 | CNc1ccc2ncc(-c3cccc4[nH]ccc34)n2c1 [Compound 255]
33 |  | < 1000 | 1000 to 10000 | CN(C(=O)OC(C)(C)C)c1ccc2ncc(-c3cccc4c3CNC4=O)n2c1 [Compound 256]
34 |  | < 1000 | 1000 to 10000 | CN(C(=O)OC(C)(C)C)c1ccc2ncc(-c3cccc4cn[nH]c34)n2c1 [Compound 259]
35 |  | < 1000 | 1000 to 10000 | CN(C(=O)OC(C)(C)C)c1ccc2ncc(-c3cccc4c3CC(=O)N4)n2c1 [Compound 260]
36 |  | < 1000 | < 1000 | CN(C(=O)OC(C)(C)C)c1ccc2ncc(-c3cccc4ncccc34)n2c1 [Compound 262]
37 |  | 1000 to 10000 | 1000 to 10000 | CN(C(=O)OC(C)(C)C)c1ccc2ncc(-c3cccc(O)c3)n2c1 [Compound 272]
38 |  | 1000 to 10000 | 1000 to 10000 | CNc1ccc2ncc(-c3cccc(C(=O)OC)c3)n2c1 [Compound 273]
39 |  | 1000 to 10000 | 1000 to 10000 | CNc1ccc2ncc(-c3cccc(CN)c3)n2c1 [Compound 274]
40 |  | 1000 to 10000 | 1000 to 10000 | CN(C(=O)OC(C)(C)C)c1ccc2ncc(-c3cccc4[nH]ccc34)n2c1 [Compound 275]
41 |  | 1000 to 10000 | 1000 to 10000 | CNC(=O)c1cccc(-c2cnc3ccc(N(C)C(=O)OC(C)(C)C)cn23)c1 [Compound 276]
42 |  | 1000 to 10000 | 1000 to 10000 | CN(C(=O)OC(C)(C)C)c1ccc2ncc(-c3ccncc3F)n2c1 [Compound 278]
43 |  | < 1000 | 1000 to 10000 | COC(=O)c1cccc(-c2cnc3ccc(N(C)C(=O)C(C)(C)C)cn23)c1 [Compound 301]
44 |  | < 1000 | 1000 to 10000 | CN(C(=O)C1CC1)c1ccc2ncc(-c3cccc(NC(=O)C4CCOCC4)c3)n2c1 [Compound 307]

Row | Structure (SMILES) | inhibition at 20 µM [1] [%] | IC50 [2] [nM] | EC50 [3] [nM]
45 | CN1CCN(c2ccc3nccn3c2)CC1 [Compound 35] | 50 to 89 |  | 
46 | CN1CCN(c2ccc3ncc(-c4ccccc4)n3c2)CC1 [Compound 37] | 50 to 89 | 1000 to 10000 | 
47 | CCOC(=O)c1ccc(-c2cnc3ccc(NC(=O)OC(C)(C)C)cn23)s1 [Compound 126, ethyl 5-(6-((tert-butoxycarbonyl)amino)imidazo[1,2-a]pyridin-3-yl)thiophen-2-carboxylate] | > 90 |  | 
